Experiment: Pharmacokinetic profile after single oral, intranasal and intravenous betahistine in beagle dogs, Example 5
Type: in vivo
Details: female, beagle, dog, in vivo; for concentration at 0 h / concentration at 5 min / concentration at 0.167 h / concentration at 0.333 h / concentration at 0.5 h / concentration at 1 h / concentration at 2 h / concentration at 3 h / concentration at 6 h / concentration at 24 h: Betahistine Plasma Concentration
Description: In this study, the pharmacokinetic profile of betahistine was evaluated after a single dose administration of betahistine in male and female beagle dogs (age 5-7 months; weight of 5-11 kg, within a range of 3 kg for each sex) for three routes of administration: oral, intranasal, and intravenous.
On Day 1 of the study, betahistine (BH) was delivered orally at a dose of 12 mg/kg, 24 mg/kg, or 48 mg/kg. Each treatment group comprised 8 animals (4 males and 4 females). For pharmacokinetic assessment, plasma samples were collected prior to dosing, and then at 5, 10, 20 and 30 min, 1, 2, 3, 6, 24 hours after dosing.
On Day 8 of the study, the animals that received oral BH at a dose of 12 mg/kg were administered the test betahistine composition intranasally at a dose of 40 mg betahistine dihydrochloride; the animals that received oral BH at a dose of 24 mg/kg were administered the test betahistine composition intranasally at a dose of 80 mg betahistine dihydrochloride; and the animals that received oral BH at a dose of 48 mg/kg were administered the test betahistine composition intranasally at a dose of 120 mg betahistine dihydrochloride. The test betahistine composition was delivered intranasally in a single dose via an Aptar nasal spray pump device at a total dose level of 40, 80 and 120 mg of betahistine dihydrochloride. Plasma samples were collected prior to dosing, and then at 5, 10, 20 and 30 min, 1, 2, 3, 6, 24 hours after dosing.
On Day 15 of the study, the animals that received oral BH at a dose of 12 mg/kg and the test betahistine composition intranasally at a dose of 40 mg betahistine dihydrochloride were administered a bolus intravenous injection of betahistine at a dose of 0.44 mg/kg. Plasma samples were collected prior to dosing, and then at 5, 10, 20 and 30 min, 1, 2, 3, 6, 24 hours after dosing.
Betahistine 13CD3 dihydrochloride and 2-pyridylacetic acid-D4 hydrochloride were used as respective internal standards. The calibration range for betahistine was 0.05-250 ng/mL and for 2-PAA 2.00-3000 ng/mL using a plasma sample volume of 0.50 mL.
For determination of betahistine, the method involved liquid-liquid extraction, for 2-PAA, the method involved protein precipitation. Plasma samples were prepared for betahistine by extraction under basic conditions with an organic solvent, then the organic phase was dried, reconstituted and transferred for LC/MS-MS analysis. […] Sample analysis was performed using reversed phase chromatography.

[1] = inhaled or intranasal, 17.7 mg/kg

CNCCc1ccccn1 [betahistine]
AUC(0-t)/D [1]: 16.4 ± 0.479 hr*ng/mL/(mg/kg) | Cmax [1]: 1330 ng/mL | Cmax/D [1]: 75.1 ± 17.0 ng/mL/(mg/kg) | Intranasal AUC/dose [1]: 16.4 (h · ng/mL)/(mg/kg) | Tmax [1]: 4.8 min | AUC(0-t) (inhaled or intranasal, 17.7 mg/kg, AUC(0-6)): 277 ± 7.99 ng·h/mL | AUC(0-t) (inhaled or intranasal, 17.7 mg/kg, AUC(0-t)): 290 ± 8.47 ng·h/mL | AUC(0-inf) (iv, 0.44 mg/kg): 14.3 ng·h/mL | AUC(0-t)/D (iv, 0.44 mg/kg): 60.3 ± 40.0 hr*ng/mL/(mg/kg) | Cmax (iv, 0.44 mg/kg): 43.7 ng/mL | Cmax/D (iv, 0.44 mg/kg): 99.3 ng/mL/(mg/kg) | Tmax (iv, 0.44 mg/kg): 5.4 min | Vd (iv, 0.44 mg/kg): 10.6 L/kg | clearance (iv, 0.44 mg/kg): 513 mL/min/kg | half-life (iv, 0.44 mg/kg): 14.3 min | AUC(0-t) (iv, 0.44 mg/kg, AUC(0-6)): 16.3 ng·h/mL | AUC(0-t) (iv, 0.44 mg/kg, AUC(0-t)): 26.5 ng·h/mL | concentration at 0 h (iv, 0.44 mg/kg): 0.0551 ng/mL | concentration at 5 min (iv, 0.44 mg/kg): 43.7 ng/mL | concentration at 0.167 h (iv, 0.44 mg/kg): 14.8 ng/mL | concentration at 0.333 h (iv, 0.44 mg/kg): 6 ng/mL | concentration at 0.5 h (iv, 0.44 mg/kg): 4.06 ng/mL | concentration at 1 h (iv, 0.44 mg/kg): 0.268 ng/mL | concentration at 2 h (iv, 0.44 mg/kg): 0.274 ng/mL | concentration at 3 h (iv, 0.44 mg/kg): 0.095 ng/mL | concentration at 6 h (iv, 0.44 mg/kg): 0.648 ng/mL | concentration at 24 h (iv, 0.44 mg/kg): 0.405 ng/mL | AUC(0-6)/D (po, 12 mg/kg): 1.33 ± 0.483 hr*ng/mL/(mg/kg) | Cmax (po, 12 mg/kg): 14.7 ± 4.56 ng/mL | Cmax/D (po, 12 mg/kg): 1.22 ± 0.380 ng/mL/(mg/kg) | Oral AUC/dose (po, 12 mg/kg): 1.33 (h · ng/mL)/(mg/kg) | Tmax (po, 12 mg/kg): 60 min | AUC(0-t) (po, 12 mg/kg, AUC(0-t)): 15.9 ± 5.8 ng·h/mL | concentration at 0 h (po, 12 mg/kg): 0 ng/mL | concentration at 5 min (po, 12 mg/kg): 2.59 ng/mL | concentration at 0.167 h (po, 12 mg/kg): 6.46 ng/mL | concentration at 0.333 h (po, 12 mg/kg): 10.1 ng/mL | concentration at 0.5 h (po, 12 mg/kg): 7.8 ng/mL | concentration at 1 h (po, 12 mg/kg): 14.1 ng/mL | concentration at 2 h (po, 12 mg/kg): 0.263 ng/mL | concentration at 3 h (po, 12 mg/kg): 0 ng/mL | concentration at 6 h (po, 12 mg/kg): 0 ng/mL | concentration at 24 h (po, 12 mg/kg): 0 ng/mL | AUC(0-6)/D (po, 24 mg/kg): 1.71 ± 0.748 hr*ng/mL/(mg/kg) | AUC(0-inf) (po, 24 mg/kg): 27.7 ng·h/mL | Cmax (po, 24 mg/kg): 38 ± 26.1 ng/mL | Cmax/D (po, 24 mg/kg): 1.58 ± 1.09 ng/mL/(mg/kg) | Oral AUC/dose (po, 24 mg/kg): 1.71 (h · ng/mL)/(mg/kg) | Tmax (po, 24 mg/kg): 60 min | half-life (po, 24 mg/kg): 84.6 min | AUC(0-t) (po, 24 mg/kg, AUC(0-6)): 26.2 ng·h/mL | AUC(0-t) (po, 24 mg/kg, AUC(0-t)): 41 ± 17.9 ng·h/mL | concentration at 0 h (po, 24 mg/kg): 0 ng/mL | concentration at 5 min (po, 24 mg/kg): 5.32 ng/mL | concentration at 0.167 h (po, 24 mg/kg): 5.24 ng/mL | concentration at 0.333 h (po, 24 mg/kg): 7.13 ng/mL | concentration at 0.5 h (po, 24 mg/kg): 12 ng/mL | concentration at 1 h (po, 24 mg/kg): 36.8 ng/mL | concentration at 2 h (po, 24 mg/kg): 3.58 ng/mL | concentration at 3 h (po, 24 mg/kg): 1.71 ng/mL

Source: patent publication US20200022963A1, “PHARMACEUTICAL COMPOSITION COMPRISING BETAHISTINE” (Otolanum AG, priority 2017, published 2020)
